Experimental data published in patent US6991778B2, “Use of dendrimers polyl-functionalized with nitroxide groups as contrast enhancing agents in MRI imaging of joints and injectable compositions comprising them” (Nitrosci, priority 1999, dated 2006).
Where two headings read alike, the source gives them in different places.

How the values were obtained:
[1] = MRI of shoulder joints after intra-articular injection; type: in vivo, human; conditions: 1 mL of 100 μM solution into both shoulder joints, 1.5 Tesla
Procedure: Into both shoulder joints of a person (45-55 kg), with post-trauma chronic soreness in one of the shoulder joint is injected 1 mL of a stock 100 μM sterile solution in 0.9% normal saline of a dendrimer of Formula (I) containing 32 terminal PROXYL-3-carbamido nitroxide groups using a (gauge 25) needle. Then position the patent in a MR imager (1.5 Tesla MR system, SIGNA; General Electric Medical Systems, Milwaukee, Wis.) and obtain a scan of both joints in the conventional manner.

[2] = Relaxivities (k1) of nitroxides and dendrimers; type: physicochemical; set-up: unit not given here; conditions: room temperature, 1.5 T
[3] = In vitro rate of nitroxide reduction by superoxide in the presence of a thiol (EPR); type: in vitro ADME; conditions: room temperature; nitroxide 50 micromolar, cysteine 200 micromolar, superoxide flux 10 micromolar/min, pH 7.4
From the text: In vitro rate of nitroxide reduction (Table 1) was undertaken using superoxide in the presence of a thiol, as an in vitro model for activated phagocytic cells. G. M. Rosen, B. E. Britigan, M. S. Cohen, S. P. Ellington and M. J. Barber, Biochim. Biophys. Acta, 969:236-241, 1988; G. M. Rosen and E. J. Rauckman. Biochem. Pharmacol. 26: 675-678, 1977; S. Pou, P. L. Davis, G. L. Wolf and G. M. Rosen, Free Rad. Res. 23: 353-364, 1995; and E. Finkelstein, G. M. Rosen and E. J. Rauckman, Biochim. Biophys. Acta, 802:90-98, 1984. For these determinations, nitroxides [S. Pou, et al, E. Finkelstein, et al., supra, and H. Kuthan, V. Ullrich and R. Estabrook, Biochem. J. 203: 551-558, 1982, (50 micromolar) were added to cysteine (200 micromolar) in the presence of a continued flux of superoxide (10 micromolar/min), generated by the action of xanthine oxidase on xanthine (400 micromolar) in Chelexed sodium phosphate buffer (50 mM, pH 7.4) The rate of superoxide production was estimated by following the superoxide dismutase (30 U/mL) inhibitable reduction of ferricytochrome c at […] using a molar absorbance of 21 mM^−1 cm^−1. H. Kuthan et al. supra. Rates of nitroxide reduction were monitored by EPR spectroscopy at ambient temperature by observing the change of the low-field (the broadened EPR spectrum of each dendrimer-linked nitroxide prevented the use of other peaks to measure rates of reduction) as a function of time.

[4] = MRI of rabbit knee joint after intra-articular injection; type: in vivo; conditions: 1 mL of stock solution into rabbit knee joint
Procedure: Rabbits (2.8-3.5 kg) to be used for MRI experiments are sedated with intramuscular Ketamine and Xylazine. Anesthesia is maintained with i. v. sodium pentobarbital as required. Under fluoroscopic guidance, a needle (gauge 25) is placed into the knee joint of a thus-anesthetized rabbit and 1 mL of a stock solution of a nitroxyl functionalized dendrimer of Formula (I) containing 32 nitroxyl functionalizing groups. The rabbit's injected joint is then positioned in a MR imager.

[5] = cited from earlier work
[6] = in vivo, iv; cited from earlier work
[7] = rabbit; cited from earlier work
[8] = rabbit joints; Bacic, et al. 1997; cited from earlier work

Compound	Relaxivity (k1) [2]	Reduction Rate [3]	other results
DAB-dendrimer-(NH-3-CO-PROXYL)32 [[9]]	5.73	0.00 µM/min	status of the articular cartilage in the MR image [1]: readily identifiable; articular cartilage in the MR image [4]: readily identifiable
O=C([O-])CN(CCN(CC(=O)[O-])CC(=O)O)CCN(CC(=O)[O-])CC(=O)O.[Gd+3] [Gd(DTPA), gadolinium (Gd)-DTPA]	4.94		relaxivity ([5]; as reported by Keana, et al.): 4.95 mM⁻¹ s⁻¹; relaxivity ([5]; room temperature, 1.5 T): ca. 5; equilibration throughout the cartilage [6]: ca. 5 hr
CC1(C)CC(C[N+](C)(C)C)C(C)(C)N1[O].[I-] (stereo not drawn) [3-trimethylaminomethyl-2,2,5,5-tetramethyl-1-pyrrolidinyloxyl iodide]			in vivo stability [7]: remarkable; affinity toward proteoglycans [8]: high affinity
DAB-dendrimer-(NH-3-CO-PROXYL)16 [[8]]	3.19	0.00 µM/min	
DAB-dendrimer-(NH-3-CH2-PROXYL)4 [[15]]	0.82		
DAB-dendrimer-(NH-3-CO-PROXYL)4 [[5]]	0.82	7.93 µM/min	
TREN-dendrimer-(NH-3-CO-PROXYL)3 [[6]]	0.57	7.54 µM/min	
CC1(C)CC(C(=O)O)C(C)(C)N1[O] (stereo not drawn) [[1], 3-carboxy-2,2,5,5-tetramethyl-1-pyrrolidinyloxyl, reference compound]	0.19	0.52 µM/min	
DAB-dendrimer-(NH-3-CO-PROXYL)8 [[7]]	1.69	0.00 µM/min	
